Assay results published in patent US12446584B2, “Termiticide composition and methods for treating termites” (ADAMA MAKHTESHIM LTD., priority 2013, dated 2025).
Where two headings read alike, the source gives them in different places.

Tests used:
Assay type in all cases: in vivo
[1] = tested on: Formosan subterranean termites (Coptotermes formosanus); test: Thin plate bioassay; details: 0.05% solution
Method: (§1) A laboratory study was conducted, using recently collected R. flavipes and C. formosanus. Thin plate bioassays were assembled using 0.6 cm glass and 0.6 cm clear Lexan. A sheet of 20.3×66 cm glass was used for the bottom. Two pieces of 2.5×61 cm glass were laid along the long edges, and two pieces of […]. Each arena had 450 g of screened sand evenly applied, and moistened with deionized water to help hold it in place during construction of the arenas. Fisher brand tongue depressors, cut in half, were used as a food source for the termites, and placed at one end of the arena. Prior to adding the Lexan top sheets, 0.6 cm holes were drilled at one end, and three 0.6 cm treatment apertures were drilled equally spaced apart at the center line. One 8 cm Petri dish with a 0.6 cm hole drilled in the bottom was lined up with the hole at the end of the top sheet, and glued down. Glue was allowed to dry for 72 hours. Large binder clips were used to hold the arena together.
(§2) Termiticide solutions were prepared as follows: Fipronil 0.017%; Fipronil 0.03%; Imidacloprid 0.05%; Imi-Fip 0.067% (Imidacloprid 0.05%, Fipronil 0.017%); and Untreated Control (water only). Ten ml of each finished solution of termiticide were applied to each arena: each of the three treatment apertures received 3.3 ml of termiticide. The treatments were allowed to dry for 24 hours, and the treatment apertures were covered with a 2.5×7.5 cm microscope slide. In each Petri dish, 500 worker and 15 soldier termites were added, using either R. flavipes or C. formosanus. Each treatment was replicated four times. Data regarding distance tunneled and mortality were collected daily for eight days. Data was analyzed using Analysis of Variance (ANOVA) and means were separated by Tukey's HSD (Honest Significant Difference test (IBM SPSS v 19).

[2] = tested on: Eastern subterranean termites (Reticulitermes flavipes); test: Thin plate bioassay; details: 0.05% solution
Method: as §1, §2

[3] = tested on: Formosan Coptotermes formosanus termites; test: Transfer effects among nestmates (donor/recipient Petri dish arenas); details: donors treated with 50 ppm; for mortality at 50 ppm: Coptotermes formosanus
Method: (§3) The purpose of this study was to determine whether there is transference of […] among nestmates of subterranean termites. Arenas for this study consisted of a 15 cm Petri dish. […] Donor and untreated marked control termites were marked using RustOleum® Marking Paint, using methodology described by Keefer et al. 2012.
(§4) Two untreated soldier termites for each species were added to each arena to simulate colony dynamics. Post-treatment observations for mortality were made at 4 h and then daily through day 7.

[4] = tested on: Eastern Subterranean Reticulitermes flavipes termites; test: as above; details: donors treated with 50 ppm; for mortality at 50 ppm: Reticulitermes flavipes
Method: as §3, §4

[5] = 4 h, by treatment (all ratios), 4 h, read-out: Mean % mortality of donors and recipients
[6] = 4 h, donor:recipient ratio 1:19, 4 h, read-out: Mean total % mortality of donors and recipients
[7] = 4 h, donor:recipient ratio 5:15, 4 h, read-out: Mean total % mortality of donors and recipients
[8] = 4 h, donor:recipient ratio 10:10, 4 h, read-out: Mean total % mortality of donors and recipients
[9] = 4 h, donor:recipient ratio 15:5, 4 h, read-out: Mean total % mortality of donors and recipients
[10] = 24 h, by treatment (all ratios), 1 d, read-out: Mean % mortality of donors and recipients
[11] = 24 h, donor:recipient ratio 1:19, 1 d, read-out: Mean total % mortality of donors and recipients
[12] = 24 h, donor:recipient ratio 5:15, 1 d, read-out: Mean total % mortality of donors and recipients
[13] = 24 h, donor:recipient ratio 10:10, 1 d, read-out: Mean total % mortality of donors and recipients
[14] = 24 h, donor:recipient ratio 15:5, 1 d, read-out: Mean total % mortality of donors and recipients
[15] = 48 h, by treatment (all ratios), 2 d, read-out: Mean % mortality of donors and recipients
[16] = 48 h, donor:recipient ratio 1:19, 2 d, read-out: Mean total % mortality of donors and recipients
[17] = 48 h, donor:recipient ratio 5:15, 2 d, read-out: Mean total % mortality of donors and recipients
[18] = 48 h, donor:recipient ratio 10:10, 2 d, read-out: Mean total % mortality of donors and recipients
[19] = 48 h, donor:recipient ratio 15:5, 2 d, read-out: Mean total % mortality of donors and recipients
[20] = 72 h, by treatment (all ratios), 3 d, read-out: Mean % mortality of donors and recipients
[21] = 72 h, donor:recipient ratio 1:19, 3 d, read-out: Mean total % mortality of donors and recipients
[22] = 72 h, donor:recipient ratio 5:15, 3 d, read-out: Mean total % mortality of donors and recipients
[23] = 72 h, donor:recipient ratio 10:10, 3 d, read-out: Mean total % mortality of donors and recipients
[24] = 72 h, donor:recipient ratio 15:5, 3 d, read-out: Mean total % mortality of donors and recipients
[25] = 96 h, by treatment (all ratios), 4 d, read-out: Mean % mortality of donors and recipients
[26] = 96 h, donor:recipient ratio 1:19, 4 d, read-out: Mean total % mortality of donors and recipients
[27] = 96 h, donor:recipient ratio 5:15, 4 d, read-out: Mean total % mortality of donors and recipients
[28] = 96 h, donor:recipient ratio 10:10, 4 d, read-out: Mean total % mortality of donors and recipients
[29] = 96 h, donor:recipient ratio 15:5, 4 d, read-out: Mean total % mortality of donors and recipients
[30] = 120 h, by treatment (all ratios), 5 d, read-out: Mean % mortality of donors and recipients
[31] = 120 h, donor:recipient ratio 1:19, 5 d, read-out: Mean total % mortality of donors and recipients
[32] = 120 h, donor:recipient ratio 5:15, 5 d, read-out: Mean total % mortality of donors and recipients
[33] = 120 h, donor:recipient ratio 10:10, 5 d, read-out: Mean total % mortality of donors and recipients
[34] = 120 h, donor:recipient ratio 15:5, 5 d, read-out: Mean total % mortality of donors and recipients
[35] = 144 h, by treatment (all ratios), 6 d, read-out: Mean % mortality of donors and recipients
[36] = 144 h, donor:recipient ratio 1:19, 6 d, read-out: Mean total % mortality of donors and recipients
[37] = 144 h, donor:recipient ratio 5:15, 6 d, read-out: Mean total % mortality of donors and recipients
[38] = 144 h, donor:recipient ratio 10:10, 6 d, read-out: Mean total % mortality of donors and recipients
[39] = 144 h, donor:recipient ratio 15:5, 6 d, read-out: Mean total % mortality of donors and recipients
[40] = 168 h, by treatment (all ratios), 7 d, read-out: Mean % mortality of donors and recipients
[41] = 168 h, donor:recipient ratio 1:19, 7 d, read-out: Mean total % mortality of donors and recipients
[42] = 168 h, donor:recipient ratio 5:15, 7 d, read-out: Mean total % mortality of donors and recipients
[43] = 168 h, donor:recipient ratio 10:10, 7 d, read-out: Mean total % mortality of donors and recipients
[44] = 168 h, donor:recipient ratio 15:5, 7 d, read-out: Mean total % mortality of donors and recipients

Work on `O=[N+]([O-])NC1=NCCN1Cc1ccc(Cl)nc1` [Imidacloprid, N-[1-[(6-Chloro-3-pyridyl)methyl]-4,5-dihydroimidazol-2-yl]nitramide] yielded a Mean % mortality ([1]; 1 day post-treatment) of 0.80 a %, a Mean % mortality ([1]; 2 days post-treatment) of 5.30 b % and a Mean % mortality ([1]; 3 days post-treatment) of 23.25 a %. The Mean % mortality ([1]; 4 days post-treatment) was 30.00 a %, the Mean % mortality ([1]; 5 days post-treatment) was 55.00 a % and the Mean % mortality ([1]; 6 days post-treatment) was 88.75 b %. The Mean % mortality ([1]; 7 days post-treatment) was 100.00 a %, the Mean % mortality ([1]; 8 days post-treatment) was 100.00a % and the Mean % mortality ([2]; 1 day post-treatment) was 6.35 a %. For the same molecule, the Mean % mortality ([2]; 2 days post-treatment) was 12.00 b %, the Mean % mortality ([2]; 3 days post-treatment) was 75.00 a % and the Mean % mortality ([2]; 4 days post-treatment) was 80.00 a %. For the same molecule, the Mean % mortality ([2]; 5 days post-treatment) was 80.00 c %, the Mean % mortality ([2]; 6 days post-treatment) was 100.00 a % and the Mean % mortality ([2]; 7 days post-treatment) was 100.00 a %. For the same molecule, the Mean % mortality ([2]; 8 days post-treatment) was 100.00 a %, the mortality at 50 ppm [3, 5] was 9% and the mortality at 50 ppm [3, 6] was 0%. The mortality at 50 ppm [3, 7] was 3.75%, the mortality at 50 ppm [3, 8] was 17.5% and the mortality at 50 ppm [3, 9] was 17.5%. For the same molecule, the mortality at 50 ppm [3, 10] was 32.5%, the mortality at 50 ppm [3, 11] was 1.25% and the mortality at 50 ppm [3, 12] was 12.5%. It also gave a mortality at 50 ppm [3, 13] of 85%, a mortality at 50 ppm [3, 14] of 31.2% and a mortality at 50 ppm [3, 15] of 52.5%. It also gave a mortality at 50 ppm [3, 16] of 5%, a mortality at 50 ppm [3, 17] of 22.5% and a mortality at 50 ppm [3, 18] of 96.2%. For the same molecule, the mortality at 50 ppm [3, 19] was 86.2%, the mortality at 50 ppm [3, 20] was 67.2% and the mortality at 50 ppm [3, 21] was 33.8%. It also gave a mortality at 50 ppm [3, 22] of 37.5%, a mortality at 50 ppm [3, 23] of 100% and a mortality at 50 ppm [3, 24] of 100%. The mortality at 50 ppm [3, 25] was 76.2%, the mortality at 50 ppm [3, 26] was 72.5% and the mortality at 50 ppm [3, 27] was 55%. For the same molecule, the mortality at 50 ppm [3, 28] was 100%, the mortality at 50 ppm [3, 29] was 100% and the mortality at 50 ppm [3, 30] was 87.5%. For the same molecule, the mortality at 50 ppm [3, 31] was 82.5%, the mortality at 50 ppm [3, 32] was 67.5% and the mortality at 50 ppm [3, 33] was 100%. It also gave a mortality at 50 ppm [3, 34] of 100%, a mortality at 50 ppm [3, 35] of 96.2% and a mortality at 50 ppm [3, 36] of 93.8%. The mortality at 50 ppm [3, 37] was 91.2%, the mortality at 50 ppm [3, 38] was 100% and the mortality at 50 ppm [3, 39] was 100%. For the same molecule, the mortality at 50 ppm [3, 40] was 97%, the mortality at 50 ppm [3, 41] was 95% and the mortality at 50 ppm [3, 42] was 96.2%. The mortality at 50 ppm [3, 43] was 100%, the mortality at 50 ppm [3, 44] was 100% and the “Mean % mortality of donors and recipients” value ([3]; by treatment (all ratios), 4 h) was 9.68 b %. The “Mean % mortality of donors and recipients” value ([3]; by treatment (all ratios), 7 d) was 97.81 a %, the mortality at 50 ppm [4, 5] was 27% and the mortality at 50 ppm [4, 6] was 10%. The mortality at 50 ppm [4, 7] was 21.2%, the mortality at 50 ppm [4, 8] was 43.8% and the mortality at 50 ppm [4, 9] was 33.8%. For the same molecule, the mortality at 50 ppm [4, 10] was 64.4%, the mortality at 50 ppm [4, 11] was 30% and the mortality at 50 ppm [4, 12] was 51.2%. For the same molecule, the mortality at 50 ppm [4, 13] was 80%, the mortality at 50 ppm [4, 14] was 96.2% and the mortality at 50 ppm [4, 15] was 64.4%. The mortality at 50 ppm [4, 16] was 30%, the mortality at 50 ppm [4, 17] was 51.2% and the mortality at 50 ppm [4, 18] was 80%. It also gave a mortality at 50 ppm [4, 19] of 96.2%, a mortality at 50 ppm [4, 20] of 73.4% and a mortality at 50 ppm [4, 21] of 33.8%. It also gave a mortality at 50 ppm [4, 22] of 60%, a mortality at 50 ppm [4, 23] of 100% and a mortality at 50 ppm [4, 24] of 100%. For the same molecule, the mortality at 50 ppm [4, 25] was 73.4%, the mortality at 50 ppm [4, 26] was 72.5% and the mortality at 50 ppm [4, 27] was 71.2%. For the same molecule, the mortality at 50 ppm [4, 28] was 100%, the mortality at 50 ppm [4, 29] was 100% and the mortality at 50 ppm [4, 30] was 90.9%. It also gave a mortality at 50 ppm [4, 31] of 76.2%, a mortality at 50 ppm [4, 32] of 87.5% and a mortality at 50 ppm [4, 33] of 100%. It also gave a mortality at 50 ppm [4, 34] of 100%, a mortality at 50 ppm [4, 35] of 98.4% and a mortality at 50 ppm [4, 36] of 98.8%. For the same molecule, the mortality at 50 ppm [4, 37] was 95%, the mortality at 50 ppm [4, 38] was 100% and the mortality at 50 ppm [4, 39] was 100%. For the same molecule, the mortality at 50 ppm [4, 40] was 100%, the mortality at 50 ppm [4, 41] was 100% and the mortality at 50 ppm [4, 42] was 100%. The mortality at 50 ppm [4, 43] was 100%, the mortality at 50 ppm [4, 44] was 100% and the “Mean % mortality of donors and recipients” value ([4]; by treatment (all ratios), 4 h) was 27.18 a %.
